Reference: ChEMBL document CHEMBL1201862, “PubChem BioAssay data set” (2004)
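Tested at 5 concentrations; 48 h exposure; 96-well plates; endpoints linearly interpolated, else capped at highest concentration. GI50: concentration for 50% inhibition of growth.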 Calls of active or inactive are those of the source. Rule as the data show it: active = GI50 up to about 1.1 µM and inactive = higher.

Key:
Experiment in all cases: DTP human tumour cell line panel, 48 h
KM-20L2 = test system: KM-20L2
M14 = test system: M14
UO-31 = test system: UO-31
MDA-MB-231 = test system: MDA-MB-231
BT-549 = test system: BT-549
DLD-1 = test system: DLD-1
T47D = test system: T47D
SK-MEL-28 = test system: SK-MEL-28
XF498 = test system: XF498
786-0 = test system: 786-0
SN12C = test system: SN12C
OVCAR-8 = test system: OVCAR-8
MOLT-4 = test system: MOLT-4
NCI-H522 = test system: NCI-H522
MDA-MB-435 = test system: MDA-MB-435
NCI-H23 = test system: NCI-H23
KM12 = test system: KM12
UACC-257 = test system: UACC-257
OVCAR-4 = test system: OVCAR-4
SW-620 = test system: SW-620
HOP-18 = test system: HOP-18
HCT-15 = test system: HCT-15
DU-145 = test system: DU-145
SK-MEL-2 = test system: SK-MEL-2
OVCAR-5 = test system: OVCAR-5
HL-60 = test system: HL-60
K562 = test system: K562
LOX IMVI = test system: LOX IMVI
COLO 205 = test system: COLO 205
SNB-19 = test system: SNB-19
TK-10 = test system: TK-10
HOP-62 = test system: HOP-62
SNB-78 = test system: SNB-78
PC-3 = test system: PC-3
UACC-62 = test system: UACC-62
SF-268 = test system: SF-268
SF-539 = test system: SF-539
MCF7 = test system: MCF7
CAKI-1 = test system: CAKI-1
Malme-3M = test system: Malme-3M
M19-MEL = test system: M19-MEL
U-251 = test system: U-251
HOP-92 = test system: HOP-92
SNB-75 = test system: SNB-75
IGROV-1 = test system: IGROV-1
NCI-H460 = test system: NCI-H460
DMS-273 = test system: DMS-273
SK-MEL-5 = test system: SK-MEL-5
A549 = test system: A549
HCT-116 = test system: HCT-116
EKVX = test system: EKVX
RXF 631 = test system: RXF 631
SR = test system: SR
HT-29 = test system: HT-29
A498 = test system: A498
SK-OV-3 = test system: SK-OV-3
ACHN = test system: ACHN
RPMI-8226 = test system: RPMI-8226
OVCAR-3 = test system: OVCAR-3
SF-295 = test system: SF-295
CCRF-CEM = test system: CCRF-CEM
LXFL 529 = test system: LXFL 529
NCI-H226 = test system: NCI-H226
DMS-114 = test system: DMS-114
MDA-N = test system: MDA-N
RXF 393 = test system: RXF 393
Hs-578T = test system: Hs-578T
HCC 2998 = test system: HCC 2998

Measured: GI50

CC(=O)Oc1cccc2c1C(=O)C(Br)(Br)CCC2
inactive: KM-20L2 8.05 µM | M14 2.51 µM | UO-31 9.46 µM | MDA-MB-231 2.38 µM | BT-549 2.14 µM | DLD-1 10.1 µM | T47D 2.53 µM | SK-MEL-28 10.5 µM | XF498 11.2 µM | 786-0 5.32 µM | SN12C 5.86 µM | OVCAR-8 4.38 µM | NCI-H522 1.87 µM | MDA-MB-435 3.56 µM | NCI-H23 4.29 µM | KM12 8.49 µM | UACC-257 10.9 µM | OVCAR-4 1.83 µM | SW-620 2.81 µM | HOP-18 18.2 µM | DU-145 13.7 µM | SK-MEL-2 9.23 µM | OVCAR-5 7.6 µM | HL-60 2.38 µM | K562 3.3 µM | LOX IMVI 2.17 µM | COLO 205 6.52 µM | SNB-19 11.1 µM | TK-10 16.9 µM | HOP-62 14.4 µM | SNB-78 17.3 µM | PC-3 3.96 µM | UACC-62 7.76 µM | SF-268 8.34 µM | SF-539 9.31 µM | MCF7 2.29 µM | CAKI-1 6.62 µM | Malme-3M 4.07 µM | M19-MEL 7.28 µM | U-251 9.62 µM | HOP-92 2.93 µM | SNB-75 6.1 µM | IGROV-1 13.5 µM | NCI-H460 17.3 µM | DMS-273 3.75 µM | SK-MEL-5 4.41 µM | A549 17.7 µM | HCT-116 3.26 µM | EKVX 11 µM | RXF 631 17.4 µM | SR 1.77 µM | HT-29 5.55 µM | A498 19 µM | SK-OV-3 10.1 µM | ACHN 6.38 µM | RPMI-8226 2.22 µM | OVCAR-3 6.97 µM | SF-295 17.5 µM | CCRF-CEM 1.34 µM | LXFL 529 6.55 µM | NCI-H226 6.68 µM | DMS-114 2.54 µM | MDA-N 2.89 µM | RXF 393 6.24 µM | Hs-578T 7.38 µM | HCC 2998 15.3 µM
5.12 µM: HCT-15
active: MOLT-4 1.11 µM
